Experimental data: patent publication US10413532B2, “Pharmaceutical compositions containing a PDE4 inhibitor and a PI3 delta or dual PI3 delta-gamma kinase inhibitor” (Rhizen Pharmaceuticals SA, priority 2012, dated 2019)

Columns and labels:
[1] = system: MMP-9; assay: MMP-9 release from PMA-induced THP-1 cells (gelatin zymography); format: cell-based, human; conditions: Homo sapiens; compound alone; THP-1 cells, PMA; read-out: IC50 for the reduction of MMP-9
Method: Gelatinase activity of MMP-9 was determined by zymography. Proteins in supernatant (after incubation of THP-1 cells with 50 ng PMA for 24 h) were separated on gels containing 0.1% gelatin (Sigma, USA). Gels were re-natured by incubation in 2.5% Triton X-100 for 30 min, incubated overnight in substrate buffer (50 mMTris-HCl, pH 7.5) containing 10 mM CaCl2 and 0.05% ZnCl2 at 37° C. and stained with Coomassie brilliant blue (0.5%). […] Molecular weight markers (Fermentas, Lithuania) were run with each gel. Band intensity was calculated using ImageJ 1.42 (NIH, USA).

[2] = system: macrophage and neutrophil infiltration; assay: Chronic cigarette smoke induced cell infiltration in male Balb/c mice; format: in vivo; conditions: alone at 1 mg/kg oral; chronic CS, mouse
Method: Animals were acclimatized for seven days prior to the start of the experiment. Animals were randomly distributed to various groups based on their body weights. Mice were exposed to the mainstream smoke of 4 cigarettes from day 1 to day 11. Exposure to the smoke of each cigarette lasted for […] (each cigarette was completely burned in the first two minutes, followed by an air flow with animal ventilator) and were exposed for the next 20 min with fresh room air. After every second cigarette an additional break of 20 min with exposure to fresh room air was conducted. Control animals were exposed to the room air chamber. Test compound was administered by the oral route from day 6 to day 11 before 30 mins whole body smoke exposure. On day 12, 24 hours after the last cigarette smoke (CS) exposure animals were exsanguinated under anaesthesia, and the trachea was cannulated and the lungs were lavaged with 0.5 ml aliquots of heparinised PBS (1 unit/nil) four times through tracheal cannula (total volume 2 ml). Bronchioalveolar (BAL) collected was stored at 2-8° C. until assayed for total cell and differential leukocyte count. BAL fluid was centrifuged (500×g for 10 min) and the resulting cell pellet was resuspended in 0.5 ml of heparinised saline. The total number of white blood cells was determined in BAL fluid and blood using a blood cell counter and adjusted to 1×10^6 cell/ml. Differential cell count was calculated manually Forty microliters of the cell suspension was centrifuged using cytospin 3 to prepare a cell smear. The cell smear was stained with a blood staining solution for differentiation and microscopically observed by identifying each cell according to its morphological characteristics. The number of each cell type among 300 white blood cells in the cell smear was determined and expressed as a percentage, and the number of neutrophils and macrophages in each BAL fluid were calculated.

O=C(Nc1c(Cl)cncc1Cl)c1ccc(OC(F)F)c(OCC2CC2)c1 [Compound A, roflumilast, reference compound]
IC50 [1]: 577 nM | inhibition of macrophage infiltration [2]: 6.30% | inhibition of neutrophil infiltration [2]: 34.60%
